Read-outs that look alike come from different tables or passages of the source.
Tests used:
P. falciparum C2B = test: Malaria SYBR Green I-Based Fluorescence (MSF) assay, blood stages; type: cell-based; settings: Plasmodium falciparum, 72 h, read-out: IC50 (µM) (±SD) for strain: C2B
Protocol: (§1) MSF assays were performed in vitro with four P. falciparum strains: D6 (drug sensitive), TM91-C235 (multidrug resistant), W2 (CQ resistant), and C2B (multidrug resistant against ATQ). Parasite strains were kept continuously in long-term cultures as described ([22]). Pre-dosed 384-well plates containing […] serial dilutions of CB compounds (0.0098–20 µM) were prepared using the Tecan Freedom Evo liquid handling system (Tecan USA, Inc., Durham, NC, USA) and were stored at 4°C. A CQ control plate (2,000 ng/mL) was included in each run. Based on modifications of previous methods ([17], [55]), late-ring or early-trophozoite stages were cultured in pre-dosed plates with 0.3% parasitemia and 2% hematocrit. Cultures were incubated for 72 hours at 37°C in a controlled atmosphere of 5% CO2, 5% O2, and 90% N2. Lysis buffer, consisting of 20 mM Tris HCl, 5 mM EDTA, 1.6% Triton X, 0.016% saponin, and SYBR Green I dye at a 20X concentration (Invitrogen #S-7567), was added to the plates for a final 10X SYBR Green concentration. Plates containing cell culture media and lysis buffer were incubated in the dark at 25°C for 24 hours, and the relative fluorescence units (RFU) were measured using the Tecan Genios Plus (Tecan USA, Inc.).

P. falciparum D6 = test: as above; type: cell-based; settings: Plasmodium falciparum, read-out: IC50 (µM) (±SD) for strain: D6
Protocol: as §1

P. falciparum TM91c235 = test: as above; type: cell-based; settings: Plasmodium falciparum, read-out: IC50 (µM) (±SD) for strain: TM91c235
Protocol: as §1

P. falciparum W2 = test: as above; type: cell-based; settings: Plasmodium falciparum, read-out: IC50 (µM) (±SD) for strain: W2
Protocol: as §1

[1] = system: P. berghei ookinete development (Ookluc parasites); test: P. berghei ookinete luciferase inhibition assay; type: cell-based, Plasmodium berghei; settings: for IC50: read-out: IC50 (ookinete development)
Protocol: Mice were pretreated with phenylhydrazine [6 mg/mL, intraperitoneal injection (IP)] 3 days before intravenous injection (IV) infection with P. berghei Ookluc parasites ([19], [62]). Once parasitemia exceeded 15%, the mice received PYR (1 mg/mL, IP) ([19], [62]). Twenty-four hours after PYR treatment, infected mice were assessed for at least 10 exflagellations before blood was collected by heart puncture ([19], [62]). Infected blood (1:20 dilution) was incubated with 8-point serial dilutions (2.5–75 µM) of CB compounds for 24 hours at 19°C with gentle shaking ([62], [64]). Relative luminescence units (RLU) of mature ookinetes were measured using the Promega Nano-Glo Luciferase Assay System Kit and a SpectraMax M3 Microplate Reader (Molecular Devices, San Jose, CA, USA) after 3 minutes. Giemsa blood smears confirmed ookinetes.

[2] = system: P. berghei blood-stage parasites; test: P. berghei blood-stage isobolograms; type: cell-based, Plasmodium berghei
Protocol: Antimalarial activity and IC50 values of CB-61 and five antimalarial drugs were assessed using the previously described in vitro drug luminescence assay ([14], [68]). Blood-stage isobolograms were performed to confirm synergistic combinations between CB-61 and the five drugs, following established protocols ([69]). Thirty-two-fold IC50 concentrations were used to obtain six concentration ranges for each drug combination, and then they were serially diluted five times ([67]). IC50 scores for each drug alone were determined, and FIC50 values (FIC50 = […]) were calculated and plotted ([70], [71]). The Promega Luciferase Assay System Kit was used to measure mature schizonts’ RLUs, and Giemsa blood smears confirmed the presence of schizonts ([14]).

[3] = D6, blood stages, 72 hours, drug-sensitive strain
[4] = blood stages, 72 hours, multidrug resistant strain
[5] = W2, blood stages, 72 hours, CQ resistant strain
[6] = Plasmodium berghei, 24 h, 24 hours at 19°C, luminescence

SMILES	IC50 (P. falciparum C2B) [µM]	IC50 (P. falciparum D6; [3]) [µM]	IC50 (P. falciparum TM91c235; [4]) [µM]	IC50 (P. falciparum W2; [5]) [µM]	IC50 ([1]; 24 hours at 19°C, luminescence) [nM]	IC50 [1, 6] [nM]	activity in ookinete formation ([1]; dose–response 2.5–75 µM)	IC50 (P. falciparum D6; D6, 72 h) [µM]	IC50 (P. falciparum TM91c235; 72 h) [µM]	IC50 (P. falciparum W2; W2, 72 h) [µM]	IC50 ([1]; Plasmodium berghei, 24 h) [nM]	Mean ΣFIC50 ([2]; combination with ATQ)	Mean ΣFIC50 ([2]; combination with CLIND)	Mean ΣFIC50 ([2]; combination with CQ (negative control))	Mean ΣFIC50 ([2]; combination with DHA)	Mean ΣFIC50 ([2]; combination with HALO)	Mean ΣFIC50 ([2]; combination with LUM)
COc1cccc(/C=N/NC(=O)c2nc(-c3ccccc3)cc(-c3ccccc3)n2)c1O [CB-41]	2.73	2.26	2.26	2.71	8400	16600											
O=C(N/N=C/c1cc(Br)ccc1O)/C(=C/C=C/c1ccccc1)NC(=O)c1ccccc1 [CB-50]	1.89	1.14	1.84	1.15			no activity										
O=C(NN=Cc1ccccc1O)c1cc(-c2ccccc2)nc2ccccc12 [CB-53]	> 20	> 20	13.9	> 20		14700											
COc1cccc(/C=N/NC(=O)c2cc(-c3ccccc3)nc3ccccc23)c1O [CB-58]	8.83	8.44	10.6	5.63		32500											
O=C(N/N=C/c1c(O)ccc2ccccc12)c1cc([N+](=O)[O-])cc([N+](=O)[O-])c1 [CB-61]	0.3							0.2	0.26	0.22	29500	1.13	0.82	1.15	1.44	0.78	1.20
